Results taken from the Deep4Chem optical property database.

assay: solvent given as SMILES; settings: in CN(C)C=O

| Compound | emission maximum [nm] |
| --- | --- |
| CCCCCCOc1ccc(C#Cc2ccc(C#Cc3ccc(OCCCCCC)c(OCCCCCC)c3)c3nsnc23)cc1OCCCCCC | 600 |

same assay, conditions: in CO

| Compound | emission maximum [nm] |
| --- | --- |
| Cc1cccc(Nc2ccccc2C(=O)O)c1C | 390 |
| CCN(CC)c1ccc2cc(-c3cc(SC)c(C#N)c(=O)o3)c(=O)oc2c1 | 582 |
| CC1=CC(/C=C/c2ccc(OCCCN=[N+]=[N-])cc2)=[N+]2C1=C(c1ccc(N3CCCCC3)cc1)c1c(C)cc(C)n1[B-]2(F)F | 586 |
| CCOC(=O)CC[N+]1=c2cc3c(cc2CCC1)=Cc1c(c2cc4c5c(c2oc1=O)CCCN5CCC4)O3 | 681 |

Second part, the compound after the results:

| emission maximum [nm] | Compound |
| --- | --- |
| 406 | O=C1Nc2ccccc2/C1=C/C(=O)c1ccc(Cl)cc1 |
| 600 | Cc1nc2c(ccc3c2sc(/C=C/c2ccc(N(C)C)cc2)[n+]3C)s1 |
| 463 | CN(C)CCCN1c2ccccc2Sc2ccc(C(F)(F)F)cc21 |

same assay, conditions: in COc1ccccc1

| Compound | emission maximum [nm] |
| --- | --- |
| CCCCCCOc1ccc(C#Cc2ccc(C#Cc3ccc(OCCCCCC)c(OCCCCCC)c3)c3nsnc23)cc1OCCCCCC | 561 |

same assay, conditions: in CS(C)=O

| Compound | emission maximum [nm] |
| --- | --- |
| CCN1c2ccc(/C=N/Nc3ccccn3)cc2Sc2cc(-c3ccccc3)ccc21 | 503 |
| CCOC(=O)C1=C(N)n2c(=O)c3ccccc3c(=O)n2C1c1ccc([N+](=O)[O-])cc1 (stereo not given) | 510 |
| CCCCOc1ccc2cc(-c3ccc(C)cc3)c(=O)oc2c1 | 431 |
| CC(C)[Si]1(C(C)C)c2cc(C#N)ccc2-c2ccc(N(C)C)cc21 | 473 |
| CCN(CC)c1ccc2cc(-c3cc(SC)c(C#N)c(=O)o3)c(=O)oc2c1 | 593 |
| COc1ccc(-c2c3nc(cc4ccc([nH]4)c(-c4ccc(OC)c(OCC(=O)O)c4)c4nc(cc5ccc2[nH]5)CC4)CC3)cc1OCC(=O)O | 738 |

same assay, conditions: in Cc1ccccc1

| Compound | emission maximum [nm] |
| --- | --- |
| CCCCC(CC)CN1C(=O)c2cccc3c(C#Cc4ccc(N(c5ccccc5)c5ccccc5)cc4)ccc(c23)C1=O (stereo not given) | 512 |
| CCC1(CC)c2cc(/C=C/c3ccc(N(c4ccccc4)c4ccccc4)cc3)ccc2-c2ccc(/C=C/c3ccc(N(c4ccccc4)c4ccccc4)cc3)cc21 | 451 |
| CCN1c2ccc(/C=N/Nc3ccccn3)cc2Sc2cc(-c3ccccc3)ccc21 | 485 |
| CC(C)(C)c1ccc2c(c1)c1cc(C(C)(C)C)ccc1n2-c1ccc(-n2c3ccc(C(C)(C)C)cc3c3cc(C(C)(C)C)ccc32)c(C(=O)c2ccncc2)c1 | 508 |
| COc1ccccc1-c1nc2c3cccnc3c3ncccc3c2n1-c1ccccc1 | 396 |
| CC(C)(C)c1ccc2c(c1)c1cc(C(C)(C)C)ccc1n2-c1ccc(-c2nc3cc(C#N)c(C#N)cc3nc2-c2ccc(-n3c4ccc(C(C)(C)C)cc4c4cc(C(C)(C)C)ccc43)cc2)cc1 | 544 |
| CCN(CC)c1ccc2cc(-c3cc(SC)c(C#N)c(=O)o3)c(=O)oc2c1 | 533 |
| CN(C)c1ccc2c(c1)COc1c-2oc2ccccc2c1=O | 441 |
| CCCCCCOc1ccc(C#Cc2ccc(C#Cc3ccc(OCCCCCC)c(OCCCCCC)c3)c3nsnc23)cc1OCCCCCC | 537 |
| CC(C)(C)c1ccc(N2c3ccc(C(C)(C)C)cc3B3c4cc(C(C)(C)C)ccc4N(c4ccc(C(C)(C)C)cc4)c4cc(-n5c6ccc(C(C)(C)C)cc6c6cc(C(C)(C)C)ccc65)cc2c43)cc1 | 470 |
| CC(C)(C)c1ccc2c(c1)c1cc(C(C)(C)C)ccc1n2-c1cccc(C(=O)c2cccc(-n3c4ccc(C(C)(C)C)cc4c4cc(C(C)(C)C)ccc43)n2)n1 | 381.64 |

same assay, conditions: in ClC(Cl)Cl

| Compound | emission maximum [nm] |
| --- | --- |
| CCCCC(CC)CN1C(=O)c2cccc3c(C#Cc4ccc(N(c5ccccc5)c5ccccc5)cc4)ccc(c23)C1=O (stereo not given) | 582 |
| COc1ccc(O[B-]2(Oc3ccc(OC)cc3)n3c(C)cc(C)c3C(c3ccc(I)cc3)=C3C(C)=CC(C)=[N+]32)cc1 | 518.49 |
| Cc1cccc(Nc2ccccc2C(=O)O)c1C | 442 |
| CCN(CC)c1ccc2cc(-c3cc(SC)c(C#N)c(=O)o3)c(=O)oc2c1 | 547 |
| CCCCCCOc1ccc(C#Cc2ccc(C#Cc3ccc(OCCCCCC)c(OCCCCCC)c3)c3nsnc23)cc1OCCCCCC | 580 |

Continued, values first:

| emission maximum [nm] | Compound |
| --- | --- |
| 423 | CCC(CC)n1c2ccccc2c2cc3c(cc21)c1ccccc1n3C(CC)CC |
| 510 | N#Cc1c2nc3ccccn3c2nc2nc3ccccn3c12 |
| 603 | Cc1nc2c(ccc3c2sc(/C=C/c2ccc(N(C)C)cc2)[n+]3C)s1 |

same assay, conditions: in ClCCCl

| Compound | emission maximum [nm] |
| --- | --- |
| CCCCCCOc1ccc(C#Cc2ccc(C#Cc3ccc(OCCCCCC)c(OCCCCCC)c3)c3nsnc23)cc1OCCCCCC | 581 |

same assay, conditions: in ClCCl

| Compound | emission maximum [nm] |
| --- | --- |
| CCN1c2ccc(/C=N/Nc3ccccn3)cc2Sc2cc(-c3ccccc3)ccc21 | 497 |
| Cc1cc(-c2ccccc2C)cc(C)[o+]1 | 469 |
| CC(C)(C)c1ccc2c(c1)c1cc(C(C)(C)C)ccc1n2-c1ccc(-n2c3ccc(C(C)(C)C)cc3c3cc(C(C)(C)C)ccc32)c(C(=O)c2ccncc2)c1 | 561.4 |
| CC(C)[Si]1(C(C)C)c2cc(C#N)ccc2-c2ccc(N(C)C)cc21 | 442 |
| CCN(CC)c1ccc2cc(-c3cc(SC)c(C#N)c(=O)o3)c(=O)oc2c1 | 560 |
| COc1ccc(-c2ccc3c(c2)[Si](C)(C)c2cc(-c4ccc(OC)cc4)ccc2C=C3)cc1 | 424 |
| CCOC(=O)CC[N+]1=c2cc3c(cc2CCC1)=Cc1c(c2cc4c5c(c2oc1=O)CCCN5CCC4)O3 | 676 |
| Cc1c2ccc(=[N+]3CCCCC3)cc-2oc2cc(N3CCCCC3)ccc12 | 570 |
| CCCCCCOc1ccc(C#Cc2ccc(C#Cc3ccc(OCCCCCC)c(OCCCCCC)c3)c3nsnc23)cc1OCCCCCC | 577 |
| CC(C)(C)c1ccc2c(c1)c1cc(C(C)(C)C)ccc1n2-c1cccc(C(=O)c2cccc(-n3c4ccc(C(C)(C)C)cc4c4cc(C(C)(C)C)ccc43)n2)n1 | 383.6 |

Continued, values first:

| emission maximum [nm] | Compound |
| --- | --- |
| 385 | CC(C)(C)NC(=O)c1cccc2ccc3c4cc(F)ccc4c4ccc(F)cc4c3c12 |
| 394 | O=C1Nc2ccccc2/C1=C/C(=O)c1ccc(Cl)cc1 |
| 370 | Cc1c(C)c2c3ccccc3[nH]c2c2ccccc12 |
| 744 | C1=Cc2nc1c(-c1ccccc1)c1ccc([nH]1)c(-c1ccccc1)c1cc(c(-c3ccccc3)c3ccc([nH]3)c2-c2ccccc2)N=C1 |
| 541 | Clc1ccccc1N1c2sc3ccccc3c2Sc2c1sc1ccccc21 |

same assay, conditions: in O

| emission maximum [nm] | Compound |
| --- | --- |
| 410 | O=C1Nc2ccccc2/C1=C/C(=O)c1ccc(Cl)cc1 |
| 688 | CCOC(=O)CC[N+]1=c2cc3c(cc2CCC1)=Cc1c(c2cc4c5c(c2oc1=O)CCCN5CCC4)O3 |
| 475 | CN(C)CCCN1c2ccccc2Sc2ccc(C(F)(F)F)cc21 |

same assay, conditions: in c1ccc([Si](c2ccccc2)(c2ccc(-n3c4ccccc4c4ccccc43)cc2)c2ccc(-n3c4ccccc4c4ccccc43)cc2)cc1

| Compound | emission maximum [nm] |
| --- | --- |
| Cc1c(C)c(B(c2c(C)c(C)c(C#N)c(C)c2C)c2c(C)c(C)c(N3c4ccccc4Oc4ccccc43)c(C)c2C)c(C)c(C)c1C#N | 533 |

same assay, conditions: in c1ccccc1

| Compound | emission maximum [nm] |
| --- | --- |
| CC(C)[Si]1(C(C)C)c2cc(C#N)ccc2-c2ccc(N(C)C)cc21 | 422 |
